Reference: patent US10500139B2, “Formulations and materials with cationic polymers” (UCL BUSINESS LTD, priority 2013, dated 2019)

Experiment: CHX and PLS release into storage solution
Assay type: physicochemical
Settings: in water over a period of 6 weeks
Description: CHX and PLS release into sample storage solutions were quantified using UV spectrometry (Mehdawi 2009, Zhao 2011) and HPLC respectively.
Reactive filler composites containing PLS were prepared as 1 mm thick composite discs. The fluid phase contained 70% UDMA, 25% TEG-DMA, 5% HEMA, 300 ppm BHT, DMPT 0.5%, BP 0.5%. 25 wt % of this fluid phase was combined with 75 wt % powder filler. The filler contained polylysine (1 or 10 wt %), chlorhexidine (0 or 10 wt %), MCPM/TCP (CaP=10 or 20 wt %) and the remainder glass particles (Sci Pharm).

Substance: ε-poly-L-lysine [PLS]
- percentage released from 1 mm thick composite discs: over 70%
